According to patent US20240315993A1, “ANTIPARASITIC COMPOUNDS” (Intervet Inc., priority 2021, published 2024):
Where two headings read alike, the source gives them in different places.

Key:
[1] = test system: juvenile soft ticks (Ornithodoros moubata); test: Guinea pig - efficacy against argaside tick; type: in vivo
Outline: (§1)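 Guinea pigs given 5 mg/kg test compound orally (gavage) or s.c. in 10% DMF/emulsifier plus 90% water for injection, with local co-infestations of Ornithodoros moubata juveniles and Cimex lectularius at several post-treatment times. Engorged parasites scored dead/damaged about 24 h after collection; % inhibition versus pretreatment baseline by modified Schneider-Orelli formula.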

[2] = test system: larvae of Rhipicephalus microplus isolates with known resistance profiles; test: Tick larvae resistance assay (larval immersion test, LIT)
Description: A tick resistance assay (i.e., larval immersion test, LIT) was carried out using larvae of several Rhipicephalus microplus isolates with known resistance profiles (i.e.: fully susceptible; resistant to dieldrin, coumaphos, DDT, chlorpyriphos, flumethrin, cypermethrin, amitraz, fluazuron).
Tick larvae (Rhipicephalus microplus) were immersed for approximately 3 minutes in test compound solution. Tick mortality was assessed approximately 24 hours after contact exposure. The vitality of used parasites was confirmed in negative control groups (i.e., an untreated control and a solvent control).

[3] = test system: bed bugs (Cimex lectularius); test: Guinea pig - efficacy against bed bug; type: in vivo
Outline: as §1

Rhipicephalus microplus = test: Cattle - efficacy against one-host tick; type: in vivo; conditions: 1 mg/kg topical (Compound 4: spray solution; others: DMA 92%/DEET 8% pour-on)
Description: Cattle were infested (whole body) with up to 3000 Rhipicephalus microplus larvae two or three times per week before and after the treatment day (Day 0). Cattle of treatment groups were treated subcutaneously or topically (spray or pour-on) at a dose of 1 mg/kg bodyweight of a test compound. As subcutaneous formulation either 2-pyrrolidon 50%/Tween 80 50% or NMP 60%/PEG300 40% was used. As topical formulation either a spray solution (DMF/Emulsifier 2%/tap water 98%) (Compound 4) or a DMA 92%/DEET 8% pour-on solution (all other compounds) or a pour-on solution containing Imwitor 988 (20%)+Miglyol 840 (QS) (Compound 453 and Compound 466) or a pour-on solution containing Miglyol 840 (QS) (Compound 453) was used. Cattle of the negative control group received only the formulation excipients of the respective administration route.
Fully engorged female ticks dropping from cattle were collected daily after treatment and counted in treatment and control groups. Efficacy was expressed using the standard ADEQ analysis method (ADEQ calculation in accordance with WAAVP guidelines for evaluating the efficacy of acaricides against ticks on ruminants; Veterinary parasitology 136 (2006) 29-43). Compounds with efficacy ≥80 percent were found active/effective. Onset of efficacy means the first Day with efficacy ≥80 percent. Duration of efficacy means the last Day with efficacy ≥80 percent.

[4] = test system: Rhipicephalus appendiculatus; test: Cattle - efficacy against multi-host ticks (Rhipicephalus appendiculatus); type: in vivo
Description: (§2) Cattle were treated subcutaneously or topically (pour-on) at a dose of 5 mg/kg bodyweight of a test compound (Day 0). As subcutaneous formulation NMP 60%/PEG300 40% was used, and as pour-on formulation DMA 92%/DEET 8% was used. Cattle of the negative control group received only the formulation excipients of both formulations (SC, pour-on).
(§3) Cattle were locally infested with 30 to 40 unfed adult ticks each of Rhipicephalus appendiculatus and Dermacenter variabilis (for both species sex ratio 1:1), by placing the ticks in an ear sleeve (R. appendiculatus) or a stockinet patch attached to the body side (D. variabilis) once before treatment, and at different time points after treatment. Free (i.e., non-attached ticks) were removed from ear sleeves/stockinet patches two days after each infestation and were excluded from the efficacy calculation.
(§4) Compounds with efficacy ≥80 percent were found active.

Dermacenter variabilis = test: Cattle - efficacy against multi-host ticks (Dermacenter variabilis); type: in vivo
Description: as §2, §3, §4

[5] = test system: Copepodids (juvenile sea lice stage of Lepeophtheirus salmonis); test: Juvenile sea lice contact assay; conditions: Lepeophtheirus salmonis, read-out: Sea lice inhibition (% of dead+damaged copepodids)
Description: Copepodids (juvenile sea lice stage of Lepeophtheirus salmonis) were exposed to seawater spiked with declining concentrations of a test compound (dissolved in a DMSO sea-water mixture). Sea lice inhibition (% of dead+damaged copepodids) was assessed after approximately 24 hours of continuous exposure. The vitality of used parasites was confirmed in a negative (solvent) control group.

[6] = test system: Mobile stages of sea lice (pre-adults, adults of Lepeophtheirus salmonis); test: Adult sea lice contact assay; conditions: read-out: EC50 (sea lice inhibition, dead+damaged)
Description: Mobile stages of sea lice (i.e., pre-adults, adults of Lepeophtheirus salmonis) were exposed to seawater spiked with declining concentrations of a test compound (dissolved in a PEG sea-water mixture). Sea lice inhibition (% of dead+damaged sea lice) was assessed after approximately 1 and 24 hours of continuous exposure in comparison to a negative (solvent) control group.

Lepeophtheirus salmonis [7] = test: Salmon - in vivo efficacy against sea lice using gavage administration; conditions: 5 mg/kg once by gavage, day -3 infestation, counted around day 28
Description: Salmon (Salmo solar) were treated once orally by gavage at a dose of 5 mg/kg bodyweight per fish (Day 0). As formulation DMSO 5%/fish oil 95% was used. Salmon of the negative control group received only the excipients of the formulation.
The fish were infested with Lepeophtheirus salmonis copepodids twice before treatment (i.e., around day −28 and day −3) and once after treatment (i.e., day 17).
Around day 28 (end of animal phase), fish were euthanized, and lice on each fish were classified ((pre-)adult or juvenile stage) and counted. […] Efficacy is expressed as a % reduction of sea lice in treated groups versus a control group, using the Abbott's formula.

Lepeophtheirus salmonis [8] = test: as above; conditions: po, 168 h, read-out: therapeutic efficacy against (pre-)adult sea lice (% reduction vs control), salmon, 5 mg/kg once by gavage, day -28 infestation, counted day 7
[9] = 5 mg/kg subcutaneous, after 7 days
[10] = 5 mg/kg subcutaneous, after 10 days
[11] = 5 mg/kg subcutaneous, after 14 days
[12] = 5 mg/kg subcutaneous, after 17 days
[13] = 5 mg/kg subcutaneous, re-infested after 7 days
[14] = 5 mg/kg subcutaneous, re-infested after 14 days
[15] = 5 mg/kg subcutaneous, re-infested after 21 days
[16] = 5 mg/kg subcutaneous, therapeutic, Day 2
[17] = 5 mg/kg topical pour-on, re-infested after 7 days
[18] = 5 mg/kg topical pour-on, re-infested after 14 days
[19] = 5 mg/kg topical pour-on, re-infested after 21 days
[20] = 5 mg/kg topical pour-on, re-infested after 28 days
[21] = pre-adults/adults, assessed after ~1 and 24 h
[22] = 5 mg/kg, at least until Day 10, both administration routes (oral, subcutaneous)

O=C(Nc1ccc(F)cc1)c1cc(NC(=O)[C@H]2[C@H](c3cc(Cl)cc(Cl)c3)C2(Cl)Cl)ccc1F [Compound 446]
activity against tick nymphs (≥80% inhibition, killed+damaged) ([1]; 5 mg/kg oral, Day 0): immediate activity
activity against tick nymphs (≥80% inhibition, killed+damaged) ([1]; 5 mg/kg subcutaneous, Day 0): immediate activity
activity against tick nymphs (≥80% inhibition, killed+damaged) [1, 9]: activity
activity against tick nymphs (≥80% inhibition, killed+damaged) [1, 10]: activity
activity against tick nymphs (≥80% inhibition, killed+damaged) [1, 11]: activity
activity against tick nymphs (≥80% inhibition, killed+damaged) [1, 12]: activity
duration of efficacy, subcutaneous compared with oral administration ([1]; 5 mg/kg, ticks and bed bugs): longer duration of efficacy
LC50 ([2]; isolate resistant to Coumaphos, Flumethrin, Cypermethrin): 0.353 ppm
LC50 ([2]; isolate resistant to Coumaphos, Flumethrin, Cypermethrin, Amitraz): 0.48 ppm
LC50 ([2]; isolate resistant to DDT, Dieldrin, Coumaphos): 0.31 ppm
LC50 ([2]; isolate resistant to DDT, Dieldrin, Coumaphos, Chlorpyriphos): 0.463 ppm
LC50 ([2]; isolate resistant to Dieldrin, Coumaphos, Fluazuron): 0.322 ppm
LC50 ([2]; isolate: Fully susceptible): 0.344 ppm
activity against bed bugs (≥80% inhibition, killed+damaged) ([3]; 5 mg/kg oral, Day 0): immediate activity
activity against bed bugs (≥80% inhibition, killed+damaged) ([3]; 5 mg/kg oral, after 7 days): activity
activity against bed bugs (≥80% inhibition, killed+damaged) ([3]; 5 mg/kg subcutaneous, Day 0): immediate activity
activity against bed bugs (≥80% inhibition, killed+damaged) [3, 9]: activity
activity against bed bugs (≥80% inhibition, killed+damaged) [3, 10]: activity
activity against bed bugs (≥80% inhibition, killed+damaged) [3, 11]: activity
activity against bed bugs (≥80% inhibition, killed+damaged) [3, 12]: activity
activity against bed bugs (≥80% inhibition, killed+damaged) ([3]; 5 mg/kg subcutaneous, after 21 days): activity
activity against bed bugs (≥80% inhibition, killed+damaged) ([3]; 5 mg/kg subcutaneous, after 24 days): activity
duration of efficacy (last Day with efficacy ≥80 percent) (Rhipicephalus microplus): 47 days
onset of efficacy (first Day with efficacy ≥80 percent) (Rhipicephalus microplus): 3 days
efficacy ≥80 percent against Rhipicephalus appendiculatus [4, 13]: prophylactic efficacy
efficacy ≥80 percent against Rhipicephalus appendiculatus [4, 14]: prophylactic efficacy
efficacy ≥80 percent against Rhipicephalus appendiculatus [4, 15]: prophylactic efficacy
efficacy ≥80 percent against Rhipicephalus appendiculatus [4, 16]: therapeutic efficacy
efficacy ≥80 percent against Rhipicephalus appendiculatus [4, 17]: prophylactic efficacy
efficacy ≥80 percent against Rhipicephalus appendiculatus [4, 18]: prophylactic efficacy
efficacy ≥80 percent against Rhipicephalus appendiculatus [4, 19]: prophylactic efficacy
efficacy ≥80 percent against Rhipicephalus appendiculatus [4, 20]: prophylactic efficacy
efficacy ≥80 percent against Dermacenter variabilis (Dermacenter variabilis; [13]): prophylactic efficacy
efficacy ≥80 percent against Dermacenter variabilis (Dermacenter variabilis; [14]): prophylactic efficacy
efficacy ≥80 percent against Dermacenter variabilis (Dermacenter variabilis; [15]): prophylactic efficacy
efficacy ≥80 percent against Dermacenter variabilis (Dermacenter variabilis; 5 mg/kg subcutaneous, re-infested after 28 days): prophylactic efficacy
efficacy ≥80 percent against Dermacenter variabilis (Dermacenter variabilis; [16]): therapeutic efficacy
efficacy ≥80 percent against Dermacenter variabilis (Dermacenter variabilis; [17]): prophylactic efficacy
efficacy ≥80 percent against Dermacenter variabilis (Dermacenter variabilis; [18]): prophylactic efficacy
efficacy ≥80 percent against Dermacenter variabilis (Dermacenter variabilis; [19]): prophylactic efficacy
efficacy ≥80 percent against Dermacenter variabilis (Dermacenter variabilis; [20]): prophylactic efficacy
efficacy ≥80 percent against Dermacenter variabilis (Dermacenter variabilis; 5 mg/kg topical pour-on, re-infested after 35 days): prophylactic efficacy
efficacy ≥80 percent against Dermacenter variabilis (Dermacenter variabilis; 5 mg/kg topical pour-on, therapeutic, Day 2): therapeutic efficacy
inhibition at 0.001 µM ([5]; 24 h): 100%
EC50 [6]: ≤ 10 nM

O=C(Nc1c(F)cc(F)cc1F)c1cc(NC(=O)[C@H]2[C@H](c3cc(Cl)cc(Cl)c3)C2(Cl)Cl)ccc1Cl [Compound 449]
activity against tick nymphs (≥80% inhibition, killed+damaged) ([1]; 5 mg/kg oral, Day 0): immediate activity
activity against tick nymphs (≥80% inhibition, killed+damaged) ([1]; 5 mg/kg subcutaneous, Day 0): immediate activity
activity against tick nymphs (≥80% inhibition, killed+damaged) [1, 9]: activity
therapeutic efficacy against juvenile sea lice (% reduction vs control) (Lepeophtheirus salmonis [7]): 80%
activity against bed bugs (≥80% inhibition, killed+damaged) ([3]; 5 mg/kg oral, Day 0): immediate activity
activity against bed bugs (≥80% inhibition, killed+damaged) ([3]; 5 mg/kg subcutaneous, Day 0): immediate activity
inhibition in vivo at 5 mg/kg (Lepeophtheirus salmonis [8]): 80%
inhibition at 0.01 µM ([5]; 10 nM in seawater, ~24 h): 100%
EC50 [6, 21]: 10 to 25 nM

O=C(Nc1ccc(F)cc1F)c1cc(NC(=O)[C@H]2[C@H](c3cc(F)c(F)c(F)c3)C2(Cl)Cl)ccc1Cl [Compound 451]
activity against tick nymphs (≥80% inhibition, killed+damaged) ([1]; 5 mg/kg oral, Day 0): immediate activity
activity against tick nymphs (≥80% inhibition, killed+damaged) ([1]; 5 mg/kg oral, after 7 days): activity
activity against tick nymphs (≥80% inhibition, killed+damaged) ([1]; 5 mg/kg oral, after 10 days): activity
activity against tick nymphs (≥80% inhibition, killed+damaged) ([1]; 5 mg/kg subcutaneous, Day 0): immediate activity
activity against tick nymphs (≥80% inhibition, killed+damaged) [1, 9]: activity
activity against tick nymphs (≥80% inhibition, killed+damaged) [1, 10]: activity
effective to control ticks [1, 22]: 100%
activity against bed bugs (≥80% inhibition, killed+damaged) ([3]; 5 mg/kg oral, Day 0): immediate activity
activity against bed bugs (≥80% inhibition, killed+damaged) ([3]; 5 mg/kg oral, after 7 days): activity
activity against bed bugs (≥80% inhibition, killed+damaged) ([3]; 5 mg/kg oral, after 10 days): activity
activity against bed bugs (≥80% inhibition, killed+damaged) ([3]; 5 mg/kg subcutaneous, Day 0): immediate activity
activity against bed bugs (≥80% inhibition, killed+damaged) [3, 9]: activity
activity against bed bugs (≥80% inhibition, killed+damaged) [3, 10]: activity
effective to control bed bugs [3, 22]: 100%
inhibition in vivo at 5 mg/kg (Lepeophtheirus salmonis [8]): 80%
inhibition at 0.001 µM ([5]; 1 nM in seawater, ~24 h): 100%
EC50 [6, 21]: ≤ 10 nM
